ChEMBL document CHEMBL1201862, “PubChem BioAssay data set” (2004)
The source made the active and inactive calls.

Experiments:
[1] = viability of PTEN-deleted HCT116 cells – cell-based, HCT116 PTEN knockout, dose response (AID 1047); assay type: functional;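 also: HCT116 colon tumor cells with PTEN knocked out; cells exposed to compound for 60 hours before readout; potency for loss of cell viability measured by luminescence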
[2] = viability of HCT116 lacking mutant beta-catenin – cell-based, human colon tumor, dose response (AID 1045); assay type: functional;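 also: HCT116 colon tumor cells with beta catenin knocked out; cells exposed to compound for 60 hours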
[3] = Luminescence Cell-Based Dose Retest to Confirm Inhibitors of Cancer Stem Cells. [Related pubchem assays (depositor defined):AID2717, AID2721]; assay type: functional; settings: Homo sapiens
[4] = viability loss of HMLE_sh_eGFP cells – cell-based, luminescence, counter-screen for HMLE_sh_ECad selective toxicity project, dose response (AID 463074); assay type: functional, Homo sapiens;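 also: HMLE human mammary epithelial cells expressing control shRNA against eGFP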
[5] = Luminescence Cell-Based/Microorganism Confirmation at Dose of Inhibitors of Trypanosoma cruzi Infection. [Related pubchem assays: 1885, 1968 ]; assay type: functional
[6] = Luminescence Cell-Based Secondary HTS screen to identify cytotoxic compounds of NIH3T3 cells. [Related pubchem assays: 1885, 1968 ]; assay type: functional
[7] = T. cruzi infection blockers in NIH3T3 cells – beta-gal luminescence, NIH3T3 host cells, confirmation (AID 2630); assay type: functional, cell-based; settings: Mus musculus
Exodeoxyribonuclease V = Exodeoxyribonuclease V (Escherichia coli (strain K12), UniProt P04993+P07648+P08394); experiment: RecBCD inhibition via phage-restricted bacterial growth – absorbance, V66 E. coli, mutant T4 phage, counter-screen for AddAB inhibitor project, dose response (AID 492957); assay type: functional, cell-based, Escherichia coli str. K-12 substr. MG1655
Nonstructural protein 1 = Nonstructural protein 1 (Influenza A virus, UniProt Q194T2); assay type: functional, Influenza A virus (A/California/07/2009(H1N1))
Chain of Nonstructural protein 1 (Q194T2 whole entry): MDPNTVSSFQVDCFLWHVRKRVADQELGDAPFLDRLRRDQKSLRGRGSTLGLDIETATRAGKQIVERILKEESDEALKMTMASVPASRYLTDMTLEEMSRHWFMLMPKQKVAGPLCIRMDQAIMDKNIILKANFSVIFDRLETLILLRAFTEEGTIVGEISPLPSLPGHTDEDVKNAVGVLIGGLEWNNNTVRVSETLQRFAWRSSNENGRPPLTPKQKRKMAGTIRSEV

[8] = Counterscreen for AddAB inhibitors: absorbance-based bacterial cell-based high throughput dose response assay for inhibitors of bacterial viability. [Related pubchem assays (depositor defined):AID435030, AID449728, AID449731, AID488942, AID488955, AID488956]; assay type: functional
[9] = biological target: T1, Microphthalmia-associated transcription factor (Homo sapiens, UniProt O75030); experiment: reducers of TRPM1 reporter luminescence, concentration series – cell-based, SK-MEL-5, cherry-picked, set 3, MITF inhibitor project, dose response (AID 493073); assay type: functional;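 also: SK-MEL-5 melanoma cells with luciferase driven by the MITF target TRPM1 promoter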
T1 sequence (O75030 whole entry): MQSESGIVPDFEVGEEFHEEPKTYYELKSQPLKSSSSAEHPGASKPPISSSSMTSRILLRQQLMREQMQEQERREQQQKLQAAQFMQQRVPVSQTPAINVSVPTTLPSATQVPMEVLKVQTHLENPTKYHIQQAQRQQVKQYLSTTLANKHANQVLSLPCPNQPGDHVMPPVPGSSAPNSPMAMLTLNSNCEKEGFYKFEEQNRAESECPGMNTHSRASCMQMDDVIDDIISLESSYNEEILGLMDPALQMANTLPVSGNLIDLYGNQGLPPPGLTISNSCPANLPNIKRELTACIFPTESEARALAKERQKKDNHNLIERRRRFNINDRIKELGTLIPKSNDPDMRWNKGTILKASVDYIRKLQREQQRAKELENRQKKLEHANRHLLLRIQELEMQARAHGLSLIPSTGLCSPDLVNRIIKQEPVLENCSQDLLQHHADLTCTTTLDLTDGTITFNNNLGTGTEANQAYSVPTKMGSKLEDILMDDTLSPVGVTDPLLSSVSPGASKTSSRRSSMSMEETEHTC

[10] = biological target: T2, Dual specificity protein phosphatase 3 (Homo sapiens, UniProt P51452); experiment: VHR1 phosphatase inhibitors, primary screen, biochemical, absorbance, uHTS (AID 1654)
T2 sequence (P51452 whole entry): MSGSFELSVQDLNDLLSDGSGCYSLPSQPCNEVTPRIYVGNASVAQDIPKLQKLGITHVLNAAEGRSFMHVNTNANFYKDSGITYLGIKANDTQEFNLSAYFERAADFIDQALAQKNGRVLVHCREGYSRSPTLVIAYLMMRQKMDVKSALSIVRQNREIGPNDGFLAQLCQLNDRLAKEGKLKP

[11] = biological target: T2, Dual specificity protein phosphatase 3; experiment: VHR1 phosphatase inhibitors, biochemical (AID 1878)
[12] = biological target: T3, Dual specificity protein phosphatase 6 (Rattus norvegicus, UniProt Q64346); experiment: inhibition of rat DUSP6 enzyme activity – biochemical, in vitro, primary screen (AID 425)
T3 sequence (Q64346 whole entry): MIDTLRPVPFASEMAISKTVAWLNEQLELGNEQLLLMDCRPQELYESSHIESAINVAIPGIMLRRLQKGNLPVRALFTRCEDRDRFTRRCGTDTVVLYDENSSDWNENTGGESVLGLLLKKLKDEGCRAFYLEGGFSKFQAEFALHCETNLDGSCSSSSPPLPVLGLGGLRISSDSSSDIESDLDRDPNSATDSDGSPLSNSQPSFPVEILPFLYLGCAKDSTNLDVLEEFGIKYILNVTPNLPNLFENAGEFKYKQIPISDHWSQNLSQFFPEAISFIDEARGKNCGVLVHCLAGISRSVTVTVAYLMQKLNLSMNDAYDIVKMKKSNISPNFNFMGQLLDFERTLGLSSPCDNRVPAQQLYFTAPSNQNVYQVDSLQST

[13] = biological target: T2, Dual specificity protein phosphatase 3; experiment: SAR VHR1 absorbance Assay for In Vitro dose response studies. [Related pubchem assays (depositor defined):AID1654, AID1661, AID1878, AID1992, AID2004]
[14] = biological target: T2, Dual specificity protein phosphatase 3; experiment: SAR VHR1 Fluorescent Assay for In Vitro dose response studies. [Related pubchem assays (depositor defined):AID1654, AID1661, AID1878, AID1992, AID2004, AID2070, AID2085]; assay type: functional
[15] = biological target: T4, Tyrosine-protein phosphatase non-receptor type 7 (Homo sapiens, UniProt P35236); experiment: redox-active compounds inhibiting HePTP phosphatase – biochemical, fluorescence, mechanism study (AID 2068); assay type: functional
T4 sequence (P35236 whole entry): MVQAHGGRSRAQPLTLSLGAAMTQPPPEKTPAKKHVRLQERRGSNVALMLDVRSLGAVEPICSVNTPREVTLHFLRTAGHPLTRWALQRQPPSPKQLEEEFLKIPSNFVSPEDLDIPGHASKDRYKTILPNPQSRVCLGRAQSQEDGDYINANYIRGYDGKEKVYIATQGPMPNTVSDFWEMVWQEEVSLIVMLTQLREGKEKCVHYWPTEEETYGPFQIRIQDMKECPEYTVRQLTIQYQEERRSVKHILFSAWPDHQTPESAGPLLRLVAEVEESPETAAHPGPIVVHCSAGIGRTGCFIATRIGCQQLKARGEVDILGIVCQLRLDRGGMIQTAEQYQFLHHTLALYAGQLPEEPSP

[16] = biological target: T3, Dual specificity protein phosphatase 6; assay type: functional
[17] = biological target: Tyrosine-protein phosphatase non-receptor type 11 (Homo sapiens, UniProt Q06124); experiment: PTPN11 enzyme inhibitors – biochemical, selectivity assay for STEP inhibitor project, dose response (AID 602367); assay type: functional; settings: read-out: IC50_Mean
Chain of Tyrosine-protein phosphatase non-receptor type 11 (Q06124 whole entry): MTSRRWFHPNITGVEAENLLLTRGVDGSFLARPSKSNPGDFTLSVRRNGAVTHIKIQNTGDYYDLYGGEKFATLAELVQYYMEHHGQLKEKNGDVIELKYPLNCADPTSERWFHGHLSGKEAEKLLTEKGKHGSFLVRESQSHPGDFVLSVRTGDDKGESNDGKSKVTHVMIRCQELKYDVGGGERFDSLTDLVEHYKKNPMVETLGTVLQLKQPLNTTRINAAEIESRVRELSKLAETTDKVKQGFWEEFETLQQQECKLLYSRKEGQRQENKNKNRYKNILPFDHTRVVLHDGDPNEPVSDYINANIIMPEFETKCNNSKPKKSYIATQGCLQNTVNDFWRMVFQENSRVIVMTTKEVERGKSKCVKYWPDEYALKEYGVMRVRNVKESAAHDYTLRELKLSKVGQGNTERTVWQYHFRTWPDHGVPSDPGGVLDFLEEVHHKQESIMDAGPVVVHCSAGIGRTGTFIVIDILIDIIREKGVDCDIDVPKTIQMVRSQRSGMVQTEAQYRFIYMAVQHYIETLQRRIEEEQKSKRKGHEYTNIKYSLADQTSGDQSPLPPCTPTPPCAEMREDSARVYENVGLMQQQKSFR

[18] = biological target: Tyrosine-protein phosphatase non-receptor type 5 (Homo sapiens, UniProt P54829); experiment: PTPN5 enzyme inhibition – biochemical, fluorescence intensity, uHTS hits, confirmation (AID 602372); assay type: functional; settings: read-out: IC50_Mean
Chain of Tyrosine-protein phosphatase non-receptor type 5 (P54829 whole entry): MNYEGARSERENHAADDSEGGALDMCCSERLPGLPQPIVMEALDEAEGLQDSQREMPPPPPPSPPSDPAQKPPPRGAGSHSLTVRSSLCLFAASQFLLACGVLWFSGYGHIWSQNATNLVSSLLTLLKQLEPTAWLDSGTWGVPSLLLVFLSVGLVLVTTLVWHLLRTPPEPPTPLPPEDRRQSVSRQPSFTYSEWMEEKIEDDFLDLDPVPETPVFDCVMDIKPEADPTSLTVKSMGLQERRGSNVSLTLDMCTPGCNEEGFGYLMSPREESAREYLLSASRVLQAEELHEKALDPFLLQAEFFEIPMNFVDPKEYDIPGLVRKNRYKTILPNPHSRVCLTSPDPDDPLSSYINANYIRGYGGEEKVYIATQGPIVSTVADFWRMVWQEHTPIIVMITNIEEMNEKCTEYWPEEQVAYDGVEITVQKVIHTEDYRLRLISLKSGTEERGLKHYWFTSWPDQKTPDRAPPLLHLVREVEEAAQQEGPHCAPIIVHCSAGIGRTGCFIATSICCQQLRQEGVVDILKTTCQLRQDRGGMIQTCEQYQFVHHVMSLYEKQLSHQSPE

[19] = biological target: T2, Dual specificity protein phosphatase 3; experiment: VHR phosphatase inhibition, dose response, selectivity assay for STEP inhibitor project, biochemical (AID 602374); assay type: functional; settings: read-out: IC50_Mean
[20] = biological target: Voltage-dependent T-type calcium channel subunit alpha-1H (Homo sapiens, UniProt O95180); experiment: inhibition of CACNA1H calcium flux – cell-based, SynthLib3 library, HEK293 Cav3.2, fluorescence (AID 493041); assay type: functional
[21] = biological target: Guanyl-specific ribonuclease T1 (Aspergillus oryzae (strain ATCC 42149 / RIB 40), UniProt P00651); experiment: inhibition of ribonuclease T1 activity – biochemical, fluorescence polarization, 1536-well, counter-screen for TPT1 inhibitor project, dose response (AID 2167)
Chain of Guanyl-specific ribonuclease T1 (P00651 whole entry): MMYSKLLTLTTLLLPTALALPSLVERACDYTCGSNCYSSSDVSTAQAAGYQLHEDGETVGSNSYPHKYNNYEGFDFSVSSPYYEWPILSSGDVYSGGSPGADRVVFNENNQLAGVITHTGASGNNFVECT

[22] = biological target: Likely tRNA 2'-phosphotransferase (Candida albicans (strain SC5314 / ATCC MYA-2876) (Yeast), UniProt Q5A7N4); experiment: inhibition of Candida TPT1 enzyme activity – biochemical, fluorescence polarization, dose response (AID 2160)
Chain of Likely tRNA 2'-phosphotransferase (Q5A7N4 whole entry): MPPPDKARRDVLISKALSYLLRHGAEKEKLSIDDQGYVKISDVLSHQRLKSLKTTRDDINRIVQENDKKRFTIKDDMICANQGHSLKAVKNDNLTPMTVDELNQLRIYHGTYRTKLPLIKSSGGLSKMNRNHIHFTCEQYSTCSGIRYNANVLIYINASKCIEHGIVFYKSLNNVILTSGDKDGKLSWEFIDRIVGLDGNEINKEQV

Hexokinase HKDC1 = biological target: T5, Hexokinase HKDC1 (Homo sapiens, UniProt Q2TB90); experiment: inhibition of HKDC1 glucose phosphorylation – biochemical, W721R variant, dose response (AID 504729); assay type: functional
T5 sequence (Q2TB90 whole entry): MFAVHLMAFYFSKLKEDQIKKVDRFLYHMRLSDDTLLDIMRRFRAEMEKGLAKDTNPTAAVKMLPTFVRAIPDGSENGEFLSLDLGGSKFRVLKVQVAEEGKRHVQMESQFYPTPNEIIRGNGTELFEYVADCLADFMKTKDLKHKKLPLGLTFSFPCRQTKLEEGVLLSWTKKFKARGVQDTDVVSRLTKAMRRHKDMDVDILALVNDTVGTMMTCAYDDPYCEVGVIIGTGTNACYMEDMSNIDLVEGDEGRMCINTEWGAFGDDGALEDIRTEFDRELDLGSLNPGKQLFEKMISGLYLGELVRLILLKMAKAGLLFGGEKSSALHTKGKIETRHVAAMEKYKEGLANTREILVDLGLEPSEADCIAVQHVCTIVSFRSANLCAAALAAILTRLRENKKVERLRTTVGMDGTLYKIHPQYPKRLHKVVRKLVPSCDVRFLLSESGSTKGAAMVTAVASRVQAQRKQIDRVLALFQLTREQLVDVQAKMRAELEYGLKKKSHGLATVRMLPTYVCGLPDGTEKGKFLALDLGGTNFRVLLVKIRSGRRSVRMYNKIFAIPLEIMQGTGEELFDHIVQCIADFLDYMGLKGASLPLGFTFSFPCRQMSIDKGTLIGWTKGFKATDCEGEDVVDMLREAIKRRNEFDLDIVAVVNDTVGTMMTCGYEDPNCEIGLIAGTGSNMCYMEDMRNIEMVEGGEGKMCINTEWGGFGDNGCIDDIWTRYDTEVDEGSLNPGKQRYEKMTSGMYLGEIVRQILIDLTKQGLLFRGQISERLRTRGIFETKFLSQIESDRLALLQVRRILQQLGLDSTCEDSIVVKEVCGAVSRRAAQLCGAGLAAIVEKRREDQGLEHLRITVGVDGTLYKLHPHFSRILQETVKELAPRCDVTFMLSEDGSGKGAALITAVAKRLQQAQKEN

[23] = biological target: Lysine-specific demethylase 4A (Homo sapiens, UniProt O75164); experiment: inhibition of JMJD2A H3K9me3 demethylation – biochemical, DELFIA europium, cherry-picked samples, selectivity assay for GASC-1 inhibitor project, dose response (AID 488840)
Chain of Lysine-specific demethylase 4A (O75164 whole entry): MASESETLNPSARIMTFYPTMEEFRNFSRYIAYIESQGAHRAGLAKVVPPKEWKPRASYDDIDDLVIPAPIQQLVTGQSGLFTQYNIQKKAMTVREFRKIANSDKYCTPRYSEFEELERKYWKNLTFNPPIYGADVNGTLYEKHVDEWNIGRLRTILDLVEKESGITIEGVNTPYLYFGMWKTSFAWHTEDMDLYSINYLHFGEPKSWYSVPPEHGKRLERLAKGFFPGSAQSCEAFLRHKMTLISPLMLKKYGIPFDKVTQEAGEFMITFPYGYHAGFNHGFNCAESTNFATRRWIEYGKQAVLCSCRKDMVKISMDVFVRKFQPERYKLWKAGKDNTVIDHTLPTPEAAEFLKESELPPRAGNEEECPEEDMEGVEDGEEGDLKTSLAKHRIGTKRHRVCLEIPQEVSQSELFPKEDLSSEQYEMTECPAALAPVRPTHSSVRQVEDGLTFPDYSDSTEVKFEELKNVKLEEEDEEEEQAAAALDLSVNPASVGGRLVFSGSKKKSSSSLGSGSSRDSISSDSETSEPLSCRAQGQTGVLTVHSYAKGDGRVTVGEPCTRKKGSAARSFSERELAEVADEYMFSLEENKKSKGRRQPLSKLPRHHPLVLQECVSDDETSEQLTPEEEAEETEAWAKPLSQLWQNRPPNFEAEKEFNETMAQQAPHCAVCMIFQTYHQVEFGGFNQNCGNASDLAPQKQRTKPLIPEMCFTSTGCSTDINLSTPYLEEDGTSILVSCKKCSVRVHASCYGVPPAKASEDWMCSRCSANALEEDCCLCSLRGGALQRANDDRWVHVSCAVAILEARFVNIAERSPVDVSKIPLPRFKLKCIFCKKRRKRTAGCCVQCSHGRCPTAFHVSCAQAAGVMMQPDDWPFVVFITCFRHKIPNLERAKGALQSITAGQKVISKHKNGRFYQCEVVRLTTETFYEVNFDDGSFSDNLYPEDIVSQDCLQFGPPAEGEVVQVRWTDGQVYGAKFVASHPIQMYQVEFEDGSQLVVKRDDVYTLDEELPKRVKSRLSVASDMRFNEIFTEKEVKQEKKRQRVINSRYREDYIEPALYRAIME

[24] = biological target: Lysine-specific demethylase 4C (Homo sapiens, UniProt Q9H3R0); experiment: inhibition of JMJD2C H3K9me3 demethylation – biochemical, DELFIA europium, cherry-picked samples, dose response (AID 488835); assay type: functional
CAAX prenyl protease 2 = biological target: T6, CAAX prenyl protease 2 (Saccharomyces cerevisiae S288c, UniProt Q03530); assay type: biochemical
T6 sequence (Q03530 whole entry): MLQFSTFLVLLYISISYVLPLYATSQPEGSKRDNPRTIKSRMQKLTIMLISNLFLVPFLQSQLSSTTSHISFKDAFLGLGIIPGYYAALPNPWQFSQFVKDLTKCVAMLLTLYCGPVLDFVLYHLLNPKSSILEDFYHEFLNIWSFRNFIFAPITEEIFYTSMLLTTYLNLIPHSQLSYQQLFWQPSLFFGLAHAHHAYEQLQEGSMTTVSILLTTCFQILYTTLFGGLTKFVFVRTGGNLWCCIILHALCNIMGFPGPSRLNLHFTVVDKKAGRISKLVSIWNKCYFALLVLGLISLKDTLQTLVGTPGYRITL

CAAX prenyl protease 1 = CAAX prenyl protease 1 (Saccharomyces cerevisiae S288c, UniProt P47154); experiment: yeast CAAX protease Ste24 inhibition – biochemical, S. cerevisiae, plate reader, cherry-pick, dose response (AID 488815)
Chain of CAAX prenyl protease 1 (P47154 whole entry): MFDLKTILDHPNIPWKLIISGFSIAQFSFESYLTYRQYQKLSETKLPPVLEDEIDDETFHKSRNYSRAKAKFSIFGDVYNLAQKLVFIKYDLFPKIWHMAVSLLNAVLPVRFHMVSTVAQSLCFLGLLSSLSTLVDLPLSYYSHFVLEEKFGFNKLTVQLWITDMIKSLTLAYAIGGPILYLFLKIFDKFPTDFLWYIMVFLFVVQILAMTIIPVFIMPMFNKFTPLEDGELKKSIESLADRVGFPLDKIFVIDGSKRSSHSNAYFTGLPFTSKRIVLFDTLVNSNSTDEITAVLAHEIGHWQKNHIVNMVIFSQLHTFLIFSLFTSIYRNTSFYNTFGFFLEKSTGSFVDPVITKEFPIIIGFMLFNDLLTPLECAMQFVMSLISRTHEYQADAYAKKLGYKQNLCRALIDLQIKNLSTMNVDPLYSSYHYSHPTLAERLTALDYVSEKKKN

Paired box protein Pax-8 = Paired box protein Pax-8 (Homo sapiens, UniProt Q06710); experiment: PAX8 transcriptional activity inhibition in RMG-I – RMG-I cells, luciferase, cherry-pick, dose response (AID 687027); assay type: functional, cell-based;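 also: luciferase reporter driven by Pax8 target thyroperoxidase promoter measured by SteadyGlo luminescence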
Chain of Paired box protein Pax-8 (Q06710 whole entry): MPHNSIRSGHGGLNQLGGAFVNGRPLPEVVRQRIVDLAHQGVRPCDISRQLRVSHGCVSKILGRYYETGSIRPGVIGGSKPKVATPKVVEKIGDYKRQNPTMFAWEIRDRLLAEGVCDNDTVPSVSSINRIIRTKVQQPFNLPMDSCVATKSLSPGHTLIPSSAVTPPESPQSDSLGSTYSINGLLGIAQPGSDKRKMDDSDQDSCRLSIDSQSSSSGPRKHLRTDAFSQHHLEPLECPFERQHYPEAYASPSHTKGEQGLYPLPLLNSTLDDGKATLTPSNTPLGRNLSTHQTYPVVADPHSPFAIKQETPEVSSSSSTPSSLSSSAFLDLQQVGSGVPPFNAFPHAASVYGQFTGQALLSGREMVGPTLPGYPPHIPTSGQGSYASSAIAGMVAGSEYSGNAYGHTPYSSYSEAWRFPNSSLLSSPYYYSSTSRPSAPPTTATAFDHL

[25] = potency of ADAM10 substrate cleavage blockers – biochemical, QFRET, dose response (AID 743254);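 also: ADAM10 enzyme with the DM2 quenched FRET peptide as substrate; EDANS fluorescence gain as the protease cuts the substrate; inhibitor potency against ADAM10 proteolytic activity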
[26] = biological target: Disintegrin and metalloproteinase domain-containing protein 17 (Homo sapiens, UniProt P78536); experiment: inhibition of ADAM17 substrate cleavage – biochemical, quenched FRET substrate, counter-screen for ADAM10 exosite inhibitor project, dose response (AID 743253)
Chain of Disintegrin and metalloproteinase domain-containing protein 17 (P78536 whole entry, the tested form may be a part): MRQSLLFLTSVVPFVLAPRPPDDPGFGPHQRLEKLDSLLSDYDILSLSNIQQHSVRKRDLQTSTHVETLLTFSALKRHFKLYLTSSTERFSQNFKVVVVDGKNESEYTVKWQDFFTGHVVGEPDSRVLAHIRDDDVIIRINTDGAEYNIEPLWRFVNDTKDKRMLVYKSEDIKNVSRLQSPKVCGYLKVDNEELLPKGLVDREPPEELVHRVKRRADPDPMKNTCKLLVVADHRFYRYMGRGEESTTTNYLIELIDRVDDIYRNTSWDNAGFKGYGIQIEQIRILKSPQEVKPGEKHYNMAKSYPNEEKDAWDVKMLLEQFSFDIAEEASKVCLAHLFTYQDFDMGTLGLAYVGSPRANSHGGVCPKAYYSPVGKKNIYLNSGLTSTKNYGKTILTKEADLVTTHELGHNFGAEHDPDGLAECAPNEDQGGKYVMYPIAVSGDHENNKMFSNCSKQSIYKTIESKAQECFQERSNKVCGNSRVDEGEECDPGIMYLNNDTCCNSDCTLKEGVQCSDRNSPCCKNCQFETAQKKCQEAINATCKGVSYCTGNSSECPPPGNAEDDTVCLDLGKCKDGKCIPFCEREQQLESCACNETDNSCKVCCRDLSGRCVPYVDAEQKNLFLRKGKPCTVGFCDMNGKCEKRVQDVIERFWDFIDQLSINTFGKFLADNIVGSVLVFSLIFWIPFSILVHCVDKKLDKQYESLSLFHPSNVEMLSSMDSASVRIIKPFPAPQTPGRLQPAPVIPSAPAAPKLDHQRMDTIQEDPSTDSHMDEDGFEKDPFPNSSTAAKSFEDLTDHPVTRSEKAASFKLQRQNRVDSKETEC

Structure (SMILES): O=C(N/N=C/c1cn(-c2cccs2)nc1-c1ccccc1)c1ccccc1Br
- EC50 [1]: 30.2 µM (active)
- EC50 [2]: 31 µM (active)
- AC50 [3]: 3.75 µM (active)
- AC50 [4]: 23 µM (active)

Structure (SMILES): Fc1ccc(CCNCc2ccc(Cl)c(Cl)c2)cc1
- EC50 [5]: 0.915 µM (active)
- EC50 [6]: > 195 µM (not active)
- EC50 [7]: 0.915 µM (active)

Structure (SMILES): O=C(O)c1cccc(NC(=S)N/N=C/c2ccccn2)c1
- IC50 (Exodeoxyribonuclease V): > 119 µM (inactive)
- IC50 (Nonstructural protein 1): 4.06 µM (active)
- IC50 [8]: > 119 µM (inactive)
- AC50 [9]: 8.63 µM (active)

Structure (SMILES): S=C(c1cn(CCOc2ccccc2)c2ccccc12)N1CCCC1
- IC50 [10]: 3.97 µM (active)
- IC50 [11]: 8.8 µM (active)
- IC50 [12]: > 158 µM (not active)
- IC50 [13]: 0.727 µM (active)
- IC50 [14]: > 99 µM (inactive)
- IC50 [15]: 0.129 µM (active)
- IC50 [16]: > 99 µM (inactive)
- IC50 [17]: 5.47 µM (active)
- IC50 [18]: 17 µM (active)
- IC50 [19]: 1.27 µM (active)

Structure (SMILES): CC(C)CCN1CC2CCC(NC(=O)c3cc(Cl)cc(Cl)c3)C2C1 (stereo not given)
- EC50 [20]: 1.8 µM (active)

Structure (SMILES): COc1ccc(OC)c(N2C(=O)/C(=C/c3ccco3)C(=O)NC2=S)c1
- IC50 [10]: < 1.23 µM (inactive)
- IC50 [21]: > 55.7 µM (not active)
- IC50 [22]: 8.01 µM (active)
- IC50 [11]: < 1.23 µM (inactive)
- IC50 [12]: < 1.23 µM (not active)
- IC50 (Hexokinase HKDC1): 2.57 µM (active)
- AC50 [23]: 16.2 µM (active)
- AC50 [24]: 4.67 µM (active)

Structure (SMILES): NC(=O)[C@H]1CC2(CC(c3cccc(NC(=O)COc4ccc(Cl)cc4)c3)=NO2)CN1C(=O)C(c1ccccc1)c1ccccc1 (stereo not given in full)
- AC50 (CAAX prenyl protease 2): 2.68 µM (active)
- AC50 (CAAX prenyl protease 1): 5.73 µM (active)
- AC50 (Paired box protein Pax-8): 15.7 µM (active)
- IC50 [25]: > 69.5 µM (inactive)
- IC50 [26]: > 69.5 µM (inactive)
